According to the supplement of paper PMC11208160:
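Further: IS621 bridge recombinase in Escherichia coli cells against a fixed T5 target plasmid.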

Test: recombinant UMI read abundance after kanamycin selection (control-corrected) (log10(CPM+1)); higher = more efficient recombination; extreme values may be limits of the assay; sequences stand for … in AGTGCAGAGAAAATCGGCCAGTTTTCTCTGCCTGCAGTCCGCATGCCGTGGGACCCCTTGGGTTCTAACCTGTTGCCTAGATTTATGCAGCGGACTGCCTTTCTCCCAAAGTGATAAACCGG…AGGTTGGTTTCACT; site = the 11-nt donor
Description: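 Pooled E. coli donor-specificity screen for the IS621 bridge recombinase. Each library member carries a reprogrammed 11-nt donor and a full-length LE bridge RNA expressed in cis from the natural promoter, with a paired donor-binding loop (8-nt LDG + 4-nt RDG) and a target-binding loop fixed to T5. It is co-electroporated with a T5 target plasmid; recombinase is induced with 0.07 mM IPTG and recombinants are selected on kanamycin. UMIs are counted as CPM, averaged over two biological replicates and corrected by the unselected control. Molecule = full bridge RNA written as DNA, built from the T5 scaffold: LDG = donor specificity nt 1-8, RDG = reverse complement of nt 8-11.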
In the case of “AACCCCGCATGGACCGGTTTTCCCGGTAATCCGTATTTGAC (site AACCCCGCTGT)”, the “recombinant UMI read abundance (log10)” value was 2.32. With “AACCGAGCATGGACCGGTTTTCCCGGTAATCCGTATTTGTT (site AACCGAGCTAA)” the “recombinant UMI read abundance (log10)” value was 0.146. For “AACCGTTCATGGACCGGTTTTCCCGGTAATCCGTATTTGAT (site AACCGTACTAT)”, the “recombinant UMI read abundance (log10)” value was 0.00732. In the case of “AACCGTTCATGGACCGGTTTTCCCGGTAATCCGTATTTGAT (site AACCGTCCTAT)”, the “recombinant UMI read abundance (log10)” value was 0.012. For “AACCGTTCATGGACCGGTTTTCCCGGTAATCCGTATTTGAT (site AACCGTGCTAT)”, the “recombinant UMI read abundance (log10)” value was 0.0146. In the case of “AACCGTTCATGGACCGGTTTTCCCGGTAATCCGTATTTGAT (site AACCGTTCTAT)”, the “recombinant UMI read abundance (log10)” value was 0.348. For “AACCTTTCATGGACCGGTTTTCCCGGTAATCCGTATTTGAC (site AACCTTTCTGT)”, the “recombinant UMI read abundance (log10)” value was 0. In the case of “AACCTTTCATGGACCGGTTTTCCCGGTAATCCGTATTTGAC (site ACCCTTTCTGT)”, the “recombinant UMI read abundance (log10)” value was 0. For “AACCTTTCATGGACCGGTTTTCCCGGTAATCCGTATTTGAC (site AGCCTTTCTGT)”, the “recombinant UMI read abundance (log10)” value was 0. With “AACCTTTCATGGACCGGTTTTCCCGGTAATCCGTATTTGAC (site ATCCTTTCTGT)” the “recombinant UMI read abundance (log10)” value was 0. For “AACGACCCATGGACCGGTTTTCCCGGTAATCCGTATTTGAG (site AACGACCCTCT)”, the “recombinant UMI read abundance (log10)” value was 0.029. With “AACGATCCATGGACCGGTTTTCCCGGTAATCCGTATTTGTA (site AACGATCCTTA)” the “recombinant UMI read abundance (log10)” value was 1.42. For “AACGCCGCATGGACCGGTTTTCCCGGTAATCCGTATTTGAG (site AACGCCGCTCT)”, the “recombinant UMI read abundance (log10)” value was 0.916. With “AACGGGACATGGACCGGTTTTCCCGGTAATCCGTATTTGAT (site AACGGGACTAT)” the “recombinant UMI read abundance (log10)” value was 2.44. In the case of “AACTATTCATGGACCGGTTTTCCCGGTAATCCGTATTTGTA (site AACTATTCTTA)”, the “recombinant UMI read abundance (log10)” value was 2.2. For “AACTCAGCATGGACCGGTTTTCCCGGTAATCCGTATTTGGG (site AACTCAGCTCC)”, the “recombinant UMI read abundance (log10)” value was 0.0924. In the case of “AACTCAGCATGGACCGGTTTTCCCGGTAATCCGTATTTGGG (site ACCTCAGCTCC)”, the “recombinant UMI read abundance (log10)” value was 0.0111. In the case of “AACTCAGCATGGACCGGTTTTCCCGGTAATCCGTATTTGGG (site AGCTCAGCTCC)”, the “recombinant UMI read abundance (log10)” value was 0.00784. For “AACTCAGCATGGACCGGTTTTCCCGGTAATCCGTATTTGGG (site ATCTCAGCTCC)”, the “recombinant UMI read abundance (log10)” value was 0.192. With “AACTGCGCATGGACCGGTTTTCCCGGTAATCCGTATTTGAT (site AACTGCGCTAT)” the “recombinant UMI read abundance (log10)” value was 1.34. For “AACTGCGCATGGACCGGTTTTCCCGGTAATCCGTATTTGTG (site AACTGCGCTCA)”, the “recombinant UMI read abundance (log10)” value was 0.435. With “AACTGTCCATGGACCGGTTTTCCCGGTAATCCGTATTTGTG (site AACTGTCCTCA)” the “recombinant UMI read abundance (log10)” value was 0.0176. In the case of “AACTTGACATGGACCGGTTTTCCCGGTAATCCGTATTTGCT (site AACTTGACTAG)”, the “recombinant UMI read abundance (log10)” value was 0.971. For “AACTTGACATGGACCGGTTTTCCCGGTAATCCGTATTTGCT (site CACTTGACTAG)”, the “recombinant UMI read abundance (log10)” value was 1.12. For “AACTTGACATGGACCGGTTTTCCCGGTAATCCGTATTTGCT (site GACTTGACTAG)”, the “recombinant UMI read abundance (log10)” value was 0.665. With “AACTTGACATGGACCGGTTTTCCCGGTAATCCGTATTTGCT (site TACTTGACTAG)” the “recombinant UMI read abundance (log10)” value was 1.24. For “AAGAAAACATGGACCGGTTTTCCCGGTAATCCGTATTTGGT (site AAGAAAACTAC)”, the “recombinant UMI read abundance (log10)” value was 1.5. In the case of “AAGAACCCATGGACCGGTTTTCCCGGTAATCCGTATTTGAA (site AAGAACCCTTT)”, the “recombinant UMI read abundance (log10)” value was 1.5. In the case of “AAGAAGACATGGACCGGTTTTCCCGGTAATCCGTATTTGCC (site AAGAAGACTGG)”, the “recombinant UMI read abundance (log10)” value was 2.47. For “AAGAAGACATGGACCGGTTTTCCCGGTAATCCGTATTTGCC (site AGGAAGACTTG)”, the “recombinant UMI read abundance (log10)” value was 0.0155. With “AAGAAGCCATGGACCGGTTTTCCCGGTAATCCGTATTTGAC (site AAGAAGCCTGT)” the “recombinant UMI read abundance (log10)” value was 0. For “AAGCACACATGGACCGGTTTTCCCGGTAATCCGTATTTGTT (site AAGCACACTAA)”, the “recombinant UMI read abundance (log10)” value was 1.8. With “AAGCACGCATGGACCGGTTTTCCCGGTAATCCGTATTTGGA (site AAGCACGCTAC)” the “recombinant UMI read abundance (log10)” value was 0.0278. For “AAGCACGCATGGACCGGTTTTCCCGGTAATCCGTATTTGGA (site AAGCACGCTCC)”, the “recombinant UMI read abundance (log10)” value was 0.0219. With “AAGCACGCATGGACCGGTTTTCCCGGTAATCCGTATTTGGA (site AAGCACGCTGC)” the “recombinant UMI read abundance (log10)” value was 0. With “AAGCACGCATGGACCGGTTTTCCCGGTAATCCGTATTTGGA (site AAGCACGCTTC)” the “recombinant UMI read abundance (log10)” value was 0.817. With “AAGCACGCATGGACCGGTTTTCCCGGTAATCCGTATTTGGG (site AAACACGCTCC)” the “recombinant UMI read abundance (log10)” value was 0.00685. With “AAGCACGCATGGACCGGTTTTCCCGGTAATCCGTATTTGGG (site AACCACGCTCC)” the “recombinant UMI read abundance (log10)” value was 0.0266. In the case of “AAGCACGCATGGACCGGTTTTCCCGGTAATCCGTATTTGGG (site AAGAACGCTCC)”, the “recombinant UMI read abundance (log10)” value was 0.0117. In the case of “AAGCACGCATGGACCGGTTTTCCCGGTAATCCGTATTTGGG (site AAGCAAGCTCC)”, the “recombinant UMI read abundance (log10)” value was 0.0142. With “AAGCACGCATGGACCGGTTTTCCCGGTAATCCGTATTTGGG (site AAGCACACTCC)” the “recombinant UMI read abundance (log10)” value was 0.0106. For “AAGCACGCATGGACCGGTTTTCCCGGTAATCCGTATTTGGG (site AAGCACCCTCC)”, the “recombinant UMI read abundance (log10)” value was 0. In the case of “AAGCACGCATGGACCGGTTTTCCCGGTAATCCGTATTTGGG (site AAGCACGCTAC)”, the “recombinant UMI read abundance (log10)” value was 0.0125. For “AAGCACGCATGGACCGGTTTTCCCGGTAATCCGTATTTGGG (site AAGCACGCTCA)”, the “recombinant UMI read abundance (log10)” value was 0.0347. For “AAGCACGCATGGACCGGTTTTCCCGGTAATCCGTATTTGGG (site AAGCACGCTCC)”, the “recombinant UMI read abundance (log10)” value was 0.133. In the case of “AAGCACGCATGGACCGGTTTTCCCGGTAATCCGTATTTGGG (site AAGCACGCTCG)”, the “recombinant UMI read abundance (log10)” value was 0.00834. For “AAGCACGCATGGACCGGTTTTCCCGGTAATCCGTATTTGGG (site AAGCACGCTCT)”, the “recombinant UMI read abundance (log10)” value was 0.265. For “AAGCACGCATGGACCGGTTTTCCCGGTAATCCGTATTTGGG (site AAGCACGCTGC)”, the “recombinant UMI read abundance (log10)” value was 0. In the case of “AAGCACGCATGGACCGGTTTTCCCGGTAATCCGTATTTGGG (site AAGCACGCTTC)”, the “recombinant UMI read abundance (log10)” value was 0.012. For “AAGCACGCATGGACCGGTTTTCCCGGTAATCCGTATTTGGG (site AAGCACTCTCC)”, the “recombinant UMI read abundance (log10)” value was 0.0617. With “AAGCACGCATGGACCGGTTTTCCCGGTAATCCGTATTTGGG (site AAGCAGGCTCC)” the “recombinant UMI read abundance (log10)” value was 0.0132. For “AAGCACGCATGGACCGGTTTTCCCGGTAATCCGTATTTGGG (site AAGCATGCTCC)”, the “recombinant UMI read abundance (log10)” value was 0.0182. With “AAGCACGCATGGACCGGTTTTCCCGGTAATCCGTATTTGGG (site AAGCCCGCTCC)” the “recombinant UMI read abundance (log10)” value was 0.0231. In the case of “AAGCACGCATGGACCGGTTTTCCCGGTAATCCGTATTTGGG (site AAGCGCGCTCC)”, the “recombinant UMI read abundance (log10)” value was 0.0213. For “AAGCACGCATGGACCGGTTTTCCCGGTAATCCGTATTTGGG (site AAGCTCGCTCC)”, the “recombinant UMI read abundance (log10)” value was 0.0309. In the case of “AAGCACGCATGGACCGGTTTTCCCGGTAATCCGTATTTGGG (site AAGGACGCTCC)”, the “recombinant UMI read abundance (log10)” value was 0.00889. In the case of “AAGCACGCATGGACCGGTTTTCCCGGTAATCCGTATTTGGG (site AAGTACGCTCC)”, the “recombinant UMI read abundance (log10)” value was 0.0168. For “AAGCACGCATGGACCGGTTTTCCCGGTAATCCGTATTTGGG (site AATCACGCTCC)”, the “recombinant UMI read abundance (log10)” value was 0.0177. In the case of “AAGCACGCATGGACCGGTTTTCCCGGTAATCCGTATTTGGG (site ACGCACGCTCC)”, the “recombinant UMI read abundance (log10)” value was 0.0214. For “AAGCACGCATGGACCGGTTTTCCCGGTAATCCGTATTTGGG (site AGGCACGCTCC)”, the “recombinant UMI read abundance (log10)” value was 0.0204. With “AAGCACGCATGGACCGGTTTTCCCGGTAATCCGTATTTGGG (site ATGCACGCTCC)” the “recombinant UMI read abundance (log10)” value was 0.0113. With “AAGCACGCATGGACCGGTTTTCCCGGTAATCCGTATTTGGG (site CAGCACGCTCC)” the “recombinant UMI read abundance (log10)” value was 0.00873. For “AAGCACGCATGGACCGGTTTTCCCGGTAATCCGTATTTGGG (site GAGCACGCTCC)”, the “recombinant UMI read abundance (log10)” value was 0.0379. In the case of “AAGCACGCATGGACCGGTTTTCCCGGTAATCCGTATTTGGG (site TAGCACGCTCC)”, the “recombinant UMI read abundance (log10)” value was 0.0044. For “AAGCGGTCATGGACCGGTTTTCCCGGTAATCCGTATTTGTT (site AAGCGGTCTAA)”, the “recombinant UMI read abundance (log10)” value was 1.4. In the case of “AAGGATACATGGACCGGTTTTCCCGGTAATCCGTATTTGCC (site AAGGATACTGG)”, the “recombinant UMI read abundance (log10)” value was 2.67. For “AAGGCCCCATGGACCGGTTTTCCCGGTAATCCGTATTTGGT (site AAGGCCCCTAC)”, the “recombinant UMI read abundance (log10)” value was 0.395. For “AAGGGATCATGGACCGGTTTTCCCGGTAATCCGTATTTGTT (site AAGGGATCTAA)”, the “recombinant UMI read abundance (log10)” value was 2.95. For “AAGGGCTCATGGACCGGTTTTCCCGGTAATCCGTATTTGGC (site AAGGGCTCTGC)”, the “recombinant UMI read abundance (log10)” value was 3.63. For “AAGTAGACATGGACCGGTTTTCCCGGTAATCCGTATTTGCA (site AAGTAGACTTG)”, the “recombinant UMI read abundance (log10)” value was 2.72. In the case of “AAGTAGACATGGACCGGTTTTCCCGGTAATCCGTATTTGCA (site AGGAAGACTTG)”, the “recombinant UMI read abundance (log10)” value was 0.52. For “AAGTCGACATGGACCGGTTTTCCCGGTAATCCGTATTTGAA (site AAGTCGACTTT)”, the “recombinant UMI read abundance (log10)” value was 0.435.
